Data: PubChem BioAssay (NCI)
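Step 1: Grow cells in 96-well plates. Step 2: Expose to compound for 48 hours at 5 concentrations. Step 3: Interpolate endpoints linearly; if unreached, use highest concentration. TGI: concentration producing complete growth inhibition.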

Assays:
Test in all cases: growth of human tumour cells (NCI), 48 h
RPMI-8226 leukemia = system: RPMI-8226 leukemia
U251 CNS = system: U251 CNS
NCI-H226 lung = system: NCI-H226 lung
UACC-257 melanoma = system: UACC-257 melanoma
SR leukemia = system: SR leukemia
MOLT-4 leukemia = system: MOLT-4 leukemia
SK-OV-3 ovarian = system: SK-OV-3 ovarian
SN12C renal = system: SN12C renal
HT29 colon = system: HT29 colon
HCC-2998 colon = system: HCC-2998 colon
A549 NSCLC = system: A549 NSCLC
HL-60(TB) leukemia = system: HL-60(TB) leukemia
TK-10 renal = system: TK-10 renal
K-562 leukemia = system: K-562 leukemia
NCI-H23 lung = system: NCI-H23 lung
UO-31 renal = system: UO-31 renal
SNB-75 CNS = system: SNB-75 CNS
MDA-N = system: MDA-N
A498 renal = system: A498 renal
MDA-MB-231 breast = system: MDA-MB-231 breast

Compound | TGI (RPMI-8226 leukemia) [µM] | TGI (U251 CNS) [µM] | TGI (NCI-H226 lung) [µM] | TGI (UACC-257 melanoma) [µM] | TGI (SR leukemia) [µM] | TGI (MOLT-4 leukemia) [µM] | TGI (SK-OV-3 ovarian) [µM] | TGI (SN12C renal) [µM] | TGI (HT29 colon) [µM] | TGI (HCC-2998 colon) [µM] | TGI (A549 NSCLC) [µM] | TGI (HL-60(TB) leukemia) [µM] | TGI (TK-10 renal) [µM] | TGI (K-562 leukemia) [µM] | TGI (NCI-H23 lung) [µM] | TGI (UO-31 renal) [µM] | TGI (SNB-75 CNS) [µM] | TGI (MDA-N) [µM] | TGI (A498 renal) [µM] | TGI (MDA-MB-231 breast) [µM]
CCC12CCCNC1c1c(n(C)c3ccccc13)C(C(=O)OC)C2 (centres undefined) | 199 | > 275 | > 275 | 255 | > 275 | > 275 | 186 | > 275 | 114 | > 275 | > 275 | > 275 | > 275 | > 275 | 252 |  |  |  |  | 
c1cnc2c(c1)-n1cccc1C1(CCSC1)NN2 (centres undefined) | > 100 | > 100 | > 100 | > 100 | > 100 | > 100 |  | > 100 | > 100 | > 100 | > 100 | > 100 | > 100 | > 100 | > 100 | > 100 | > 100 |  |  | 
Cc1ccc(NCC(=O)N2CC(=O)Nc3ccccc32)cc1 | > 100 | > 100 | > 100 | > 100 | > 100 | > 100 | > 100 | > 100 | > 100 | > 100 | > 100 | > 100 | > 100 | > 100 | > 100 | > 100 | > 100 |  |  | 
COc1cc(CNC2=NCCC2)cc(OC)c1OC |  | > 100 | > 100 | > 100 |  | > 100 | > 100 | > 100 | > 100 | > 100 | > 100 | > 100 | > 100 | > 100 | > 100 | > 100 | > 100 | > 100 |  | 
CC(=O)Nc1ccc(-c2nc3ccccc3s2)cc1C | > 100 | > 100 | > 100 | > 100 | > 100 | > 100 | > 100 |  | > 100 | > 100 |  | > 100 | > 100 |  | > 100 | > 100 | > 100 |  | 21.6 | > 100
CC(=O)OC1CC2(C)OC(Cc3ccccc32)O1 (centres undefined) | > 100 | > 100 | > 100 | > 100 | > 100 | > 100 | > 100 | > 100 | > 100 | > 100 | > 100 | > 100 | > 100 | > 100 | > 100 | > 100 | > 100 |  |  | 
Cc1cc(C)n2c(-c3ccccc3)c(C)cc2n1 |  | > 100 | > 100 | > 100 |  |  | > 100 | > 100 | > 100 | > 100 | > 100 | 50.4 | > 100 | > 100 | > 100 | > 100 | 59.8 |  | > 100 | 
COC(=O)c1c2c(cc3c1CC1(C3)Cc3cc4c(c(C(C)=O)c3C1)CCC4)C=CC2 (centres undefined) | > 31.6 | > 31.6 | > 31.6 | > 31.6 | > 31.6 | > 31.6 |  | > 31.6 | > 31.6 |  | > 31.6 | > 31.6 | > 31.6 | > 31.6 | > 31.6 | > 31.6 | 31.2 |  | > 31.6 | > 31.6
Cc1ccc2c(c1)C1C(CO2)C(c2ccccc2)=NN1c1ccccc1 (centres undefined) | > 100 | > 100 |  | > 100 |  | > 100 | > 100 |  | > 100 | > 100 | > 100 | > 100 | > 100 | > 100 | > 100 | > 100 | > 100 |  | > 100 | 
CC(C)(C)CNC(=O)NCn1cc(-c2ccccc2)nn1 | > 100 | > 100 | > 100 | > 100 | > 100 | > 100 |  | > 100 | > 100 | > 100 | > 100 | > 100 | > 100 | > 100 | > 100 |  |  |  |  | > 100
COc1cc2c(cc1OC)CN1CCCc3cc(OC)c(OC)cc3C1C2 (centres undefined) |  | > 100 | 96.1 | > 100 |  | > 100 | > 100 | > 100 | 61.7 | > 100 | > 100 |  | > 100 | > 100 | > 100 | > 100 | 52 | 42.4 |  | > 100
Cc1ccc2c(c1)C1(OC(=O)c3ccccc31)c1ccc(F)cc1O2 (centres undefined) | 74.1 |  | 85.8 | > 100 | 73.8 | 54.9 | > 100 | > 100 | > 100 | > 100 | > 100 | 51 | > 100 | > 100 |  | 75.8 |  |  |  | 
O=c1oc2ccccc2c(O)c1/C=N/C(=S)NCc1ccccc1 |  | > 100 | > 100 | > 100 |  | > 100 | > 100 | > 100 | > 100 | > 100 | > 100 | > 100 | 51.8 |  | > 100 | > 100 | > 100 | > 100 |  | > 100
C[C@H](NC(=O)n1c2ccccc2c2ccccc21)C(=O)O | > 100 | > 100 | > 100 | > 100 | > 100 | > 100 | > 100 | > 100 | > 100 | > 100 | > 100 | > 100 | > 100 | > 100 | > 100 |  |  |  |  | 
C/C(=N\NS(=O)(=O)c1ccc(C)cc1)c1cc2ccccc2n1C | > 100 | > 100 |  | > 100 | > 100 | > 100 |  | 57.7 | > 100 | > 100 | > 100 | > 100 |  | > 100 | > 100 | > 100 | > 100 |  | > 100 | 
Cc1c(/C=N/NC(=S)Nc2ccccc2)c(=O)n(-c2ccccc2)n1C | > 100 | > 100 | > 100 | > 100 | > 100 | > 100 | > 100 |  | > 100 | > 100 |  | > 100 | > 100 | > 100 | > 100 | > 100 | > 100 |  | > 100 | > 100
CC(Oc1ccc(OCC2CCCCC2)cc1)C(=O)NCCO (centres undefined) |  | > 100 | > 100 | > 100 |  | > 100 | > 100 | > 100 | > 100 |  | > 100 | > 100 | > 100 | > 100 | > 100 | > 100 | > 100 |  | > 100 | 
Cc1cc2oc(-c3ccccc3)c(C)c(=O)c2c2c1OC(C)(C)S2 | > 100 | > 100 | > 100 | > 100 | > 100 | > 100 | > 100 | > 100 | > 100 | > 100 | > 100 | 38.4 | > 100 | > 100 | > 100 | > 100 | > 100 |  |  | 
CN1C(=O)C(C(N)=O)C2CC1(C)Oc1ccccc12 (centres undefined) | > 100 | > 100 | > 100 | > 100 | > 100 | > 100 | > 100 | > 100 | > 100 | > 100 | > 100 | > 100 |  | > 100 | > 100 |  | > 100 |  | > 100 | > 100
CC1=NN2C(c3ccc(C)cc3)=CSC2=NC(C)(C)C1 | > 100 | > 100 | > 100 | > 100 |  | > 100 | > 100 | > 100 | > 100 | > 100 | > 100 | > 100 | > 100 | > 100 | > 100 | > 100 | > 100 |  | > 100 | 
Cc1nc2c(cc1C(=O)N/N=C/c1ccc([N+](=O)[O-])cc1)c(=O)n(C)c(=O)n2C | > 100 | 57 | > 100 | > 100 |  | > 100 | > 100 | > 100 | > 100 | > 100 | > 100 | > 100 | > 100 | > 100 | > 100 | > 100 | > 100 | > 100 |  | 65.7
COc1ccc(N2C(=O)c3c(c4[nH]c5ccc(OC)cc5c4c4ccc(C(C)(C)C)cc34)C2=O)cc1 | > 100 | > 100 | > 100 | > 100 |  | > 100 | > 100 | > 100 | > 100 | > 100 | > 100 | > 100 | > 100 | > 100 | > 100 | > 100 | > 100 |  |  | 
COC(=O)C1=CC2CC1C(S(=O)(=O)c1ccccc1)C2S(=O)(=O)c1ccccc1 (centres undefined) | 29.3 | 35.8 | 40.2 | 32.7 | 11.3 | 19.6 | > 100 | 28.8 | 28.9 | 34.4 | 69.3 | 7.29 | 24.7 | 32.3 | 36.8 | 27.7 |  |  | 42.9 | 
